Test results taken from the NIST ThermoML archive (doi:10.1016/j.jct.2015.12.023).

Assay: mn = molality of the nth substance listed, in mol/kg
Conditions: 100 kPa, Liquid; for speed of sound: Frequency=3 MHz, Sing-around technique in a fixed-path interferometer; for mass density: Vibrating tube method

CCCC[N+](CCCC)(CCCC)CCCC.[I-] [tetrabutylammonium iodide] + O
Conditions	mass density, 288.15 K [kg/m3]	mass density, 293.15 K [kg/m3]	mass density, 298.15 K [kg/m3]	mass density, 303.15 K [kg/m3]	mass density, 308.15 K [kg/m3]	speed of sound, 288.15 K [m/s]	speed of sound, 293.15 K [m/s]	speed of sound, 298.15 K [m/s]	speed of sound, 303.15 K [m/s]	speed of sound, 308.15 K [m/s]
m1 = 0.01	1001.07	1000.16	998.97	997.53	995.95	1468.9	1484.9	1498.9	1511.1	1521.2
m1 = 0.02	1001.64	1000.72	999.53	998.07	996.49	1471.3	1487.1	1500.9	1512.9	1522.9
m1 = 0.03	1002.22	1001.29	1000.09	998.61	997.02	1473.6	1489.1	1502.8	1514.5	1524.4
m1 = 0.04	1002.83	1001.88	1000.67	999.19	997.58	1475.8	1491.3	1504.7	1516.3	1526
